Results from US7951530B2, “Cyclic maltosylmaltose, cyclic maltosymaltose-forming enzyme, their preparation and uses” (Kabushiki Kaisha Hayashibara Seibutsu Kagaku Kenkyujo, priority 2003, dated 2011).

Assays:
[1] = molecular target: T1, Salivary α-amylase (Homo sapiens, UniProt P0DUB6)
T1 sequence (P0DUB6 16-511): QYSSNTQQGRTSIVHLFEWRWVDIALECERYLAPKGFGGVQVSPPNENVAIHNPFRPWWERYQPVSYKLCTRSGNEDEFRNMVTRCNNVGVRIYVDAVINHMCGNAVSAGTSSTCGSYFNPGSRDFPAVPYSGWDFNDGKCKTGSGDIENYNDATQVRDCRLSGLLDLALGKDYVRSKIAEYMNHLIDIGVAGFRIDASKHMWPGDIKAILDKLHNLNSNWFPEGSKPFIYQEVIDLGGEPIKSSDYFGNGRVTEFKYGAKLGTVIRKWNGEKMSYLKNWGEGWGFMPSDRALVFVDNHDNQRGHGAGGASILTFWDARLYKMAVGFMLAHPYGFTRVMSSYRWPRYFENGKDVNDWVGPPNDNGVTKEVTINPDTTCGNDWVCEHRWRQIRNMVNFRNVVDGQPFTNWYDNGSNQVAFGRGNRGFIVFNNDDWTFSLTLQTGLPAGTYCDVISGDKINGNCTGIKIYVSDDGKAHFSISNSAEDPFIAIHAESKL
Source text: (§2) 43, 23-29 (1990), the digestibility of CMM by salivary α-amylase, artificial gastric juice, pancreas amylase, and small intestinal enzymes were investigated using the powdery hydrous crystalline CMM, obtained by the method in Experiment 14.

[2] = tested on: mice; experiment: Acute toxicity test; assay type: in vivo
Source text: By using mice, CMM obtained by the method in Experiment 14 was orally administrated to the mice for its acute toxicity test. […] Though not so accurate, the value of LD50 of CMM was 5 g/kg-mouse weight or higher.

[3] = Amino-carbonyl reaction with polypeptone; assay type: physicochemical; details: 5% (w/v) saccharide, 5% (w/v) polypeptone, 120° C., blank subtracted
Procedure: (§1) As a control, an aqueous solution containing maltose and polypeptone was prepared in the same manner using maltose except for the powdery hydrous crystalline CMM. Four milliliters each of the solution was put in a glass tube, sealed and then heated at 120° C. for 30, 60, or 90 min. After cooling the solutions, the degrees of coloring of the solutions were measured to estimate the degree of amino-carbonyl reaction. As a blank test, a solution containing polypeptone only was heated in the same manner. The degree of coloring was defined as an absorbance at 480 nm using a 1 cm-cell after subtracting the absorbance of the blank test.

[4] = tested on: Pancreas α-amylase
Source text: as §2

[5] = tested on: Small intestinal enzymes
Source text: as §2

[6] = pH stability of CMM; assay type: physicochemical; details: 4% (w/v) CMM, 100° C. for 24 hours
Procedure: Eight milliliters of each solution was put in a glass tube, sealed and then heated at 100° C. for 24 hours. After cooling the solution, the degree of coloring and the purity of CMM were measured in the same manner in Experiment 17.

[7] = Concentration of CMM in saturated aqueous solution; assay type: physicochemical; details: 25° C.
Procedure: Successively, the glass vessel was sealed, and the suspension was stirred two days with keeping the temperature at 25° C. to give a saturated solution. After removing the solid CMM by filtrating the saturated solution, the moisture content of the filtrate was measured by the drying loss method to determine the concentration of CMM in saturated solution.

[8] = Clathrating action of CMM; assay type: physicochemical; details: for strength of clathrating activity in comparison with branched cyclodextrin: on a weight basis
Source text: One hundred grams of the aqueous solution was admixed with 1.2 g of methanol, 1.7 g of ethanol, or 2.2 g of acetic acid as flavor components for allowing CMM to clathrate the flavor components. Successively, each solution was filtrated, and the resulting filtrate was freeze-dried to remove unclathrated flavor component. As a control, “ISOELITE P”, a mixture of branched cyclodextrins commercialized by Maruha Corporation, Tokyo, Japan, which has been known to have a clathrating activity, was tested by the same procedure. In order to measure the amount of flavor component clathrated in the freeze-dried powder, 1 g of each freeze-dried powder was dissolved in 5 ml of water and admixed with 5 ml of diethylether to extract the flavor component, and the extraction was repeated once more. The amount of the extracted flavor component in diethylether was measured by gas-chromatography.

[9] = Reducing power by the Somogyi-Nelson method; assay type: physicochemical
Source text: It was concluded that the saccharide was a non-reducing saccharide substantially.

[10] = Amino-carbonyl reaction with glycine; assay type: physicochemical; details: […] (w/v) saccharide, 0.5% (w/v) glycine, pH 8.0, 100° C.
Procedure: as §1, with “glycine” for “polypeptone”, “100°” for “120°”, “reaction.” for “reaction. As a blank test, a solution containing polypeptone only was heated in the same manner.”, “cm-cell.” for “cm-cell after subtracting the absorbance of the blank test.”

[11] = Thermal stability of CMM; assay type: physicochemical; details: 7% (w/v) CMM, 120° C.; for Purity (%): HPLC
Procedure: A powdery hydrous crystalline CMM was dissolved in water for preparing an aqueous solution containing 7% (w/v) of CMM. Eight milliliters each of the resulting solution was pored into a glass tube, sealed closely, and then heated at 120° C. for 30 to 90 min. After cooling the solution, the degree of coloring of the solution was measured. Further, the purity of CMM in the solution was measured by HPLC. The degree of coloring was defined as an absorbance at 480 nm using a 1 cm-cell.

SMILES: OC[C@H]1O[C@@H]2OC[C@H]3O[C@H](O[C@H]4[C@H](O)[C@@H](O)[C@@H](OC[C@H]5O[C@H](O[C@H]1[C@H](O)[C@H]2O)[C@H](O)[C@@H](O)[C@@H]5O)O[C@@H]4CO)[C@H](O)[C@@H](O)[C@@H]3O [CMM, cyclo{>6)-α-D-glucopyranosyl-(1>4)-α-D-glucopyranosyl-(1>6)-α-D-glucopyranosyl-(1>4)-α-D-glucopyranosyl-(1>}]
- Degradation rate (%) [1]: 0%
- mortality ([2]; oral administration at the highest possible dose): no mouse died
- LD50 ([2]; oral administration, mice, though not so accurate): ≥ 5 g/kg-mouse weight
- Degree of coloring (A480 nm) ([3]; heating time 0 min): 0.00
- Degree of coloring (A480 nm) ([3]; heating time 30 min): 0.00
- Degree of coloring (A480 nm) ([3]; heating time 60 min): 0.00
- Degree of coloring (A480 nm) ([3]; heating time 90 min): 0.00
- Degradation rate (%) [4]: 0%
- Degradation rate (%) [5]: 0%
- Degree of coloring (A480 nm) ([6]; pH 2.0, Acetate buffer): 0
- Purity (%) ([6]; pH 2.0, Acetate buffer): 93%
- Degree of coloring (A480 nm) ([6]; pH 3.0, Acetate buffer): 0
- Purity (%) ([6]; pH 3.0, Acetate buffer): 100%
- Degree of coloring (A480 nm) ([6]; pH 4.0, Acetate buffer): 0
- Purity (%) ([6]; pH 4.0, Acetate buffer): 100%
- Degree of coloring (A480 nm) ([6]; pH 5.0, Acetate buffer): 0
- Purity (%) ([6]; pH 5.0, Acetate buffer): 100%
- Degree of coloring (A480 nm) ([6]; pH 6.0, Tris-HCl buffer): 0
- Purity (%) ([6]; pH 6.0, Tris-HCl buffer): 100%
- Degree of coloring (A480 nm) ([6]; pH 7.0, Tris-HCl buffer): 0
- Purity (%) ([6]; pH 7.0, Tris-HCl buffer): 100%
- Degree of coloring (A480 nm) ([6]; pH 8.0, Tris-HCl buffer): 0
- Purity (%) ([6]; pH 8.0, Tris-HCl buffer): 100%
- Degree of coloring (A480 nm) ([6]; pH 9.0, Ammonium buffer): 0
- Purity (%) ([6]; pH 9.0, Ammonium buffer): 100%
- saturated concentration of CMM to water [7]: about 8.0 % (w/w)
- strength of clathrating activity in comparison with branched cyclodextrin ([8]; acetic acid): ~0.8 fold
- strength of clathrating activity in comparison with branched cyclodextrin ([8]; ethanol): ~0.5 fold
- Amount of flavor component clathrated (mg/g-freeze-dried powder) ([8]; flavor component Acetic acid): 30.55 mg/g-freeze-dried powder
- Amount of flavor component clathrated (mg/g-freeze-dried powder) ([8]; flavor component Ethanol): 4.20 mg/g-freeze-dried powder
- Amount of flavor component clathrated (mg/g-freeze-dried powder) ([8]; flavor component Methanol): 4.30 mg/g-freeze-dried powder
- strength of clathrating activity in comparison with branched cyclodextrin ([8]; methanol): about 1.3 folds
- reducing power [9]: less than the measurable limit
- Degree of coloring (A480 nm) ([10]; heating time 0 min): 0.00
- Degree of coloring (A480 nm) ([10]; heating time 30 min): 0.00
- Degree of coloring (A480 nm) ([10]; heating time 60 min): 0.00
- Degree of coloring (A480 nm) ([10]; heating time 90 min): 0.00
- Degree of coloring (A480 nm) ([11]; heating time 0 min): 0
- Purity (%) ([11]; heating time 0 min): 100%
- Degree of coloring (A480 nm) ([11]; heating time 30 min): 0
- Purity (%) ([11]; heating time 30 min): 100%
- Degree of coloring (A480 nm) ([11]; heating time 60 min): 0
- Purity (%) ([11]; heating time 60 min): 100%
- Degree of coloring (A480 nm) ([11]; heating time 90 min): 0
- Purity (%) ([11]; heating time 90 min): 100%
